PubChem BioAssay AID248 (DTP/NCI, 2004)
Values joined by “and” are separate entries in the source; they are usually repeats but may differ in a detail not shown here. Equal values may be shown once. Inconclusive results and toxic doses are left out. Rule as the data show it: active = T/C of 150% or more; inactive = T/C below 125%.

Test system: L1210 leukemia ip in BDF1 mice, survival T/C
Test: NCI In Vivo Anticancer Drug Screen. Data for tumor model L1210 Leukemia (intraperitoneal) in B6D2F1 (BDF1) mice
Conditions: endpoint: mean survival time, higher = longer survival
Method in brief: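 Transplanted-tumor mice were given test agent; controls received vehicle only. Survival readings from the two groups were divided (treated over control).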

[1] = dose: 100.0 mg/kg/injection, schedule: Q01DX009 (ip), vehicle: Klucel (hydroxypropylcellulose) (HPC)
[2] = dose: 100.0 mg/kg/injection, schedule: Q04DX003 (ip), vehicle: Klucel (hydroxypropylcellulose) (HPC)
[3] = dose: 200.0 mg/kg/injection, schedule: Q01DX009 (ip), vehicle: Klucel (hydroxypropylcellulose) (HPC)
[4] = dose: 200.0 mg/kg/injection, schedule: Q04DX003 (ip), vehicle: Klucel (hydroxypropylcellulose) (HPC)
[5] = dose: 400.0 mg/kg/injection, schedule: Q01DX009 (ip), vehicle: Klucel (hydroxypropylcellulose) (HPC)
[6] = dose: 400.0 mg/kg/injection, schedule: Q04DX003 (ip), vehicle: Klucel (hydroxypropylcellulose) (HPC)
[7] = dose: 100.0 mg/kg/injection, schedule: Q04DX003 (ip), vehicle: saline with Tween-80
[8] = dose: 200.0 mg/kg/injection, schedule: Q04DX003 (ip), vehicle: saline with Tween-80
[9] = dose: 400.0 mg/kg/injection, schedule: Q04DX003 (ip), vehicle: saline with Tween-80
[10] = dose: 50.0 mg/kg/injection, schedule: Q01DX001 (ip), vehicle: saline
[11] = dose: 100.0 mg/kg/injection, schedule: Q01DX001 (ip), vehicle: saline
[12] = dose: 200.0 mg/kg/injection, schedule: Q01DX001 (ip), vehicle: saline
[13] = dose: 400.0 mg/kg/injection, schedule: Q01DX001 (ip), vehicle: saline
[14] = dose: 100.0 mg/kg/injection, schedule: Q01DX009 (ip), vehicle: saline with Tween-80
[15] = dose: 200.0 mg/kg/injection, schedule: Q01DX009 (ip), vehicle: saline with Tween-80
[16] = dose: 400.0 mg/kg/injection, schedule: Q01DX009 (ip), vehicle: saline with Tween-80

Measured: T/C

CCNC(=O)Nc1ccc(C)cc1C
inactive: [1] 94 % of control | [2] 96 % of control | [3] 103 % of control | [4] 96 % of control | [5] 105 % of control | [6] 95 % of control

CCCN(CCC#N)CN1C(=O)c2ccccc2C1=O
inactive: dose: 100.0 mg/kg/injection, schedule: Q01DX001 (ip), vehicle: carboxymethylcellulose (CMC) 110 % of control | dose: 100.0 mg/kg/injection, schedule: Q01DX009 (ip), vehicle: carboxymethylcellulose (CMC) 90 % of control | dose: 100.0 mg/kg/injection, schedule: Q04DX002 (ip), vehicle: carboxymethylcellulose (CMC) 98 % of control and 100 % of control | dose: 100.0 mg/kg/injection, schedule: Q04DX003 (ip), vehicle: carboxymethylcellulose (CMC) 95 % of control | dose: 200.0 mg/kg/injection, schedule: Q01DX001 (ip), vehicle: carboxymethylcellulose (CMC) 113 % of control | dose: 200.0 mg/kg/injection, schedule: Q01DX009 (ip), vehicle: carboxymethylcellulose (CMC) 93 % of control | dose: 200.0 mg/kg/injection, schedule: Q04DX002 (ip), vehicle: carboxymethylcellulose (CMC) 94 % of control and 102 % of control | dose: 200.0 mg/kg/injection, schedule: Q04DX003 (ip), vehicle: carboxymethylcellulose (CMC) 101 % of control | dose: 400.0 mg/kg/injection, schedule: Q01DX001 (ip), vehicle: carboxymethylcellulose (CMC) 97 % of control | dose: 400.0 mg/kg/injection, schedule: Q01DX009 (ip), vehicle: carboxymethylcellulose (CMC) 100 % of control | dose: 400.0 mg/kg/injection, schedule: Q04DX002 (ip), vehicle: carboxymethylcellulose (CMC) 94 % of control and 97 % of control | dose: 400.0 mg/kg/injection, schedule: Q04DX003 (ip), vehicle: carboxymethylcellulose (CMC) 107 % of control

CNC(C)COc1ccccc1 (configuration not stated)
inactive: dose: 25.0 mg/kg/injection, schedule: Q01DX009 (ip), vehicle: saline 101 % of control | dose: 25.0 mg/kg/injection, schedule: Q04DX003 (ip), vehicle: saline with Tween-80 94 % of control | dose: 50.0 mg/kg/injection, schedule: Q01DX009 (ip), vehicle: saline 98 % of control | dose: 50.0 mg/kg/injection, schedule: Q04DX003 (ip), vehicle: saline with Tween-80 91 % of control | [7] 95 % of control

O=c1[nH]c(=O)n(C2SC(CO)C(O)C2O)cc1F (configuration not stated)
inactive: dose: 18.8 mg/kg/injection, schedule: Q04DX003 (ip), vehicle: saline 102 % of control | dose: 37.5 mg/kg/injection, schedule: Q04DX003 (ip), vehicle: saline 94 % of control | dose: 50.0 mg/kg/injection, schedule: Q04DX003 (ip), vehicle: saline 94 % of control | dose: 100.0 mg/kg/injection, schedule: Q01DX005 (ip), vehicle: saline 97 % of control | dose: 200.0 mg/kg/injection, schedule: Q01DX005 (ip), vehicle: saline 95 % of control

CCC(c1ccc(OC)cc1)C(O)(CC)c1ccc(OC)cc1 (configuration not stated)
inactive: [2] 98 % of control | [4] 98 % of control | [6] 102 % of control

O=C(NCCCCC(Cl)C(=O)O)c1ccccc1 (configuration not stated)
inactive: [7] 100 % of control | [8] 100 % of control | [9] 100 % of control

O=C(Nc1cccs1)c1ccccc1
inactive: dose: 100.0 mg/kg/injection, schedule: Q04DX003 (ip), vehicle: saline 97 % of control | dose: 200.0 mg/kg/injection, schedule: Q04DX003 (ip), vehicle: saline 93 % of control | dose: 400.0 mg/kg/injection, schedule: Q04DX003 (ip), vehicle: saline 95 % of control

CC(C)(C#N)CCCCC(C)(C)C#N
inactive: [10] 105 % of control | [11] 108 % of control | [12] 102 % of control | [13] 100 % of control

CC(=O)OCC(=O)[C@@]12OC(C)(C)O[C@@H]1C[C@H]1[C@@H]3CC(C=O)=C4C=C(OCCCl)CC[C@]4(C)[C@@]3(F)[C@@H](O)C[C@@]12C
inactive: [1] 95 % of control

CC(=O)NC1CCC(O)CC1 (configuration not stated)
inactive: [11] 104 % of control | [12] 94 % of control | [13] 107 % of control

CCOC(=O)C(Br)(C(=O)OCC)C(=O)c1cc(-c2ccc(Cl)c(Cl)c2)nc2c(Cl)cc(Cl)cc12
inactive: dose: 100.0 mg/kg/injection, schedule: Q01DX001 (ip), vehicle: Klucel (hydroxypropylcellulose) (HPC) 103 % of control | [1] 95 % of control | dose: 200.0 mg/kg/injection, schedule: Q01DX001 (ip), vehicle: Klucel (hydroxypropylcellulose) (HPC) 111 % of control | [3] 96 % of control | dose: 400.0 mg/kg/injection, schedule: Q01DX001 (ip), vehicle: Klucel (hydroxypropylcellulose) (HPC) 105 % of control | [5] 95 % of control

CCCCCCCCCCCCCCCC[N+](C)(C)CCCCCCCCCCCCCCCC
inactive: dose: 3.12 mg/kg/injection, schedule: Q03DX003 (ip), vehicle: saline with Tween-80 103 % of control | dose: 6.25 mg/kg/injection, schedule: Q03DX003 (ip), vehicle: saline with Tween-80 100 % of control | dose: 12.5 mg/kg/injection, schedule: Q03DX003 (ip), vehicle: saline with Tween-80 103 % of control | dose: 12.5 mg/kg/injection, schedule: Q04DX003 (ip), vehicle: saline with Tween-80 93 % of control

CC1CCCC(C)N1C1=NCCO1 (configuration not stated)
inactive: dose: 5.0 mg/kg/injection, schedule: Q01DX009 (ip), vehicle: saline with Tween-80 95 % of control | dose: 10.0 mg/kg/injection, schedule: Q01DX009 (ip), vehicle: saline with Tween-80 97 % of control | dose: 20.0 mg/kg/injection, schedule: Q01DX009 (ip), vehicle: saline with Tween-80 95 % of control

O=C(Nc1cccc(C(=O)Nc2ccc(C3=NCCN3)cc2)c1)Nc1cccc(C(=O)Nc2ccc(C3=NCCN3)cc2)c1
inactive: dose: 15.0 mg/kg/injection, schedule: Q01DX Z (ip), vehicle: methylcellulose (MC) 94 % of control | dose: 30.0 mg/kg/injection, schedule: Q01DX Z (ip), vehicle: methylcellulose (MC) 105 % of control | dose: 60.0 mg/kg/injection, schedule: Q01DX Z (ip), vehicle: methylcellulose (MC) 100 % of control | dose: 120.0 mg/kg/injection, schedule: Q01DX Z (ip), vehicle: methylcellulose (MC) 102 % of control | dose: 125.0 mg/kg/injection, schedule: Q01DX Z (ip), vehicle: water 93 % of control | dose: 250.0 mg/kg/injection, schedule: Q01DX Z (ip), vehicle: water 102 % of control | dose: 500.0 mg/kg/injection, schedule: Q01DX Z (ip), vehicle: water 101 % of control

CC1([N+](=O)[O-])COP(=O)(OCCc2ccccc2)OC1 (configuration not stated)
inactive: [10] 95 % of control | [11] 98 % of control | [12] 93 % of control | [13] 98 % of control

O=C(c1ccccc1)C(c1ccccc1)C(C[N+](=O)[O-])c1ccccc1 (configuration not stated)
inactive: [14] 88 % of control | [15] 90 % of control | [16] 96 % of control

CC(C)(C)NC(=O)Nc1ccc(O)cc1
inactive: [14] 112 % of control and 91 % of control | dose: 100.0 mg/kg/injection, schedule: Q04DX002 (ip), vehicle: saline with Tween-80 94 % of control and 100 % of control | [7] 95 % of control | [15] 100 % of control and 102 % of control | dose: 200.0 mg/kg/injection, schedule: Q04DX002 (ip), vehicle: saline with Tween-80 94 % of control and 100 % of control | [8] 113 % of control | [16] 120 % of control | dose: 400.0 mg/kg/injection, schedule: Q04DX002 (ip), vehicle: saline with Tween-80 100 % of control and 101 % of control | [9] 105 % of control

Cc1ccc(CNC(=O)NC(C)(C)C)cc1C
inactive: dose: 100.0 mg/kg/injection, schedule: Q04DX002 (ip), vehicle: Klucel (hydroxypropylcellulose) (HPC) 103 % of control | dose: 200.0 mg/kg/injection, schedule: Q04DX002 (ip), vehicle: Klucel (hydroxypropylcellulose) (HPC) 111 % of control | dose: 400.0 mg/kg/injection, schedule: Q04DX002 (ip), vehicle: Klucel (hydroxypropylcellulose) (HPC) 100 % of control

CCC(CC)C(=O)NC(=O)NC(C)=O
inactive: dose: 75.0 mg/kg/injection, schedule: Q01DX001 (ip), vehicle: Klucel (hydroxypropylcellulose) (HPC) 91 % of control | dose: 150.0 mg/kg/injection, schedule: Q01DX001 (ip), vehicle: Klucel (hydroxypropylcellulose) (HPC) 102 % of control | dose: 300.0 mg/kg/injection, schedule: Q01DX001 (ip), vehicle: Klucel (hydroxypropylcellulose) (HPC) 88 % of control

O=C(O)c1ccc2c(c1)OCO2
inactive: [1] 97 % of control | [3] 92 % of control | [5] 99 % of control

CCN(CC)c1cccc(O)c1
inactive: [7] 90 % of control | [8] 95 % of control
